The target in experiment [1] is T1, B-Raf kinase (Homo sapiens, UniProt P15056).
T1 construct: GST (N); purchased Sigma
The experiment can be described thus: Biochemical Assay for B-Raf (coupled pyruvate kinase/lactate dehydrogenase assay). As to conditions: Table 1, inhibition of biochemical activity; read-out: BRAF.

The target of experiment [2] is T2, C-Raf kinase (Homo sapiens, UniProt P04049, Y340D/Y341D).
T2 construct: C-Raf residues 306-end; Y340D, Y341D with N-; GST (N); purchased Eurofins
T2 sequence (P04049 307-648 Y340D/Y341D): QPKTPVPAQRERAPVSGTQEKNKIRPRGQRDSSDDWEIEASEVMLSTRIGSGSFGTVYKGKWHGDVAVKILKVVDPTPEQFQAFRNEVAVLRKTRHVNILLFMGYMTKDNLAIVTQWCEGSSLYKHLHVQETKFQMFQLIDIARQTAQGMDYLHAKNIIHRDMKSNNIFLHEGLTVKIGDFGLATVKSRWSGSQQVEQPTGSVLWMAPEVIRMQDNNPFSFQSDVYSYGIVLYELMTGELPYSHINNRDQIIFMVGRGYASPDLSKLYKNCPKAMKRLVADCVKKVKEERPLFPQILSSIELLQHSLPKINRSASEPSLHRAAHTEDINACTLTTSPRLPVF
The experiment is described as follows: Biochemical Assay for C-Raf (coupled pyruvate kinase/lactate dehydrogenase assay). The settings on record: Table 1, inhibition of biochemical activity; read-out: CRAF.

The test system of experiment [3] is MiaPaca-2 cells. The experiment is described as follows: MiaPaca-2 Cell Proliferation Assay. The experiment is classed as cell-based. The settings on record: Homo sapiens, MIA PaCa-2; Table 2, inhibition of cell proliferation; read-out: MiaPaca-2. How it is done:
MiaPaca-2 cells (catalog #CRL-1420) are obtained from the American Type Culture Collect (ATTC, Manassas, VA). Briefly, cells were grown in DMEM supplemented with 10% characterized fetal bovine serum (Invitrogen, Carlsbad, CA), 2.5% New Zealand sourced horse serum and 1% Penicillin/Streptomycin/L-Glutamine at 37° C., 5% CO2, and 95% humidity. Cells are expanded until reaching 70-95% confluency at which point they are sub-cultured or harvested for assay use. For assays completed in 96-well plates, a serial dilution of test compound is dispensed into a 96-well black clear bottom plate in triplicate. Three thousand cells are added per well in 200 μL complete growth medium in the 96-well plate. Plates are incubated for 67 to 72 h at 37° C., 5% CO2, and 95% humidity. At the end of the incubation, 40 μL of a […] solution of resazurin (Sigma, St. Louis, MO) in PBS is added to each well of the plate and plates are incubated for an additional 5 to 6 hours at 37° C., 5% CO2, and 95% humidity. For 384-well assays, a threefold, 8-point serial dilution of compound was spotted column wise into a 384 well black, clear bottom, tissue culture treated plate using the Beckman Coulter Echo 650. Likewise, a threefold, 8-point serial dilution of cobimetinib was spotted row wise into the 384 well black, clear bottom plate containing compound. DMSO concentration was constant across all wells at 0.4%. Seven hundred fifty cells are added per well in 50 μL complete growth medium in each 384-well plate. Plates are incubated for 67 to 72 h at 37° C., 5% CO2, and 95% humidity. At the end of the incubation, 10 μL of a 440 μM solution of resazurin (Sigma, St. Louis, MO) in PBS is added to each well of the plate and plates are incubated for an additional 4 to 6 h at 37° C., 5% CO2, and 95% humidity. Plates are read on a Synergy2 or equivalent reader (Biotek, Winooski VT) using an excitation of 540 nm and an emission of 600 nm. Data is analyzed using Prism software (Graphpad, San Diego, CA) to calculate IC50 values.

In US20260176279A1, “DUAL RAF AND TUBULIN INHIBITORS AND METHODS OF USE THEREOF” (Deciphera Pharmaceuticals, LLC, priority 2023, published 2026) one finds IC50 data, which are given here for 16 compounds.

Some results are limits rather than exact numbers.

T1 sequence (P15056 416-766): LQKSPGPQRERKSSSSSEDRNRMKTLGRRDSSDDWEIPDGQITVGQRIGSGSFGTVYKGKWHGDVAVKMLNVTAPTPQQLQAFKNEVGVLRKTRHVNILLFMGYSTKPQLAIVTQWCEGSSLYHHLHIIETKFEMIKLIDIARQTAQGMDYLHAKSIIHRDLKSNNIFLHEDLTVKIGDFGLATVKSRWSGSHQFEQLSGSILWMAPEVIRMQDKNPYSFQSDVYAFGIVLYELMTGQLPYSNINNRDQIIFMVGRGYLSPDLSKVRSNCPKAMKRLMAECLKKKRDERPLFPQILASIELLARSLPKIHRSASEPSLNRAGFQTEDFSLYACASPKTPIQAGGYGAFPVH

As to `COCC(=O)Nc1cc(-c2cc(-c3cc(NC(=O)Nc4ccc(C(F)(F)F)nc4)ccc3C)cn(C)c2=O)ccn1` [Example 3, 2-methoxy-N-(1-methyl-5-(2-methyl-5-(3-(6-(trifluoromethyl)pyridin-3-yl)ureido)phenyl)-2-oxo-1,2-dihydro-[3,4′-bipyridin]-2′-yl)acetamide], the figures for the IC50 in experiment [1], in experiment [2] and in experiment [3] were 100 to 500 nM, less than 100 nM and 100 to 500 nM, respectively.

Turning to `CC(=O)Nc1cc(-c2cc(-c3cc(NC(=O)Nc4ccc(C(F)(F)F)nc4)ccc3C)cc(OCCO)n2)ccn1` [Example 5], the IC50 in experiment [1], in experiment [2] and in experiment [3] was less than 100 nM each time.

Take `Cc1ccc(NC(=O)Nc2ccc(C(F)(F)F)nc2)cc1-c1cncc(-c2cc(NC(=O)C3CC3)ncn2)c1` [Example 15]: the values for the IC50 in experiment [1], in experiment [2] and in experiment [3] were less than 100 nM, less than 100 nM and 500 to 1000 nM, respectively.

With `Cc1ccc(NC(=O)Nc2ccc(C(F)(F)F)nc2)cc1-c1cncc(-c2cc(N)ncn2)c1` [Example 16], the IC50 in experiment [1] was less than 100 nM; in experiment [2], less than 100 nM; in experiment [3], 100 to 500 nM.

As to `CNC(=O)c1cc(-c2cncc(-c3cc(NC(=O)Nc4ccc(C(F)(F)F)nc4)ccc3C)c2)ncn1` [Example 21], the IC50 is less than 100 nM in experiment [1], less than 100 nM in experiment [2] and 100 to 500 nM in experiment [3].

`Cc1ccc(NC(=O)Nc2ccc(C)c(-c3cc(OCCO)nc(N4CCOCC4)c3)c2)cn1` [Example 23, 1-(3-(2-(2-hydroxyethoxy)-6-morpholinopyridin-4-yl)-4-methylphenyl)-3-(6-methylpyridin-3-yl)urea]: the values for the IC50 in experiment [1], in experiment [2] and in experiment [3] were 100 to 500 nM, less than 100 nM and less than 100 nM, respectively.

With `Cc1ncc(NC(=O)Nc2ccc(C(F)(F)F)nc2)cc1-c1cc(OCCO)nc(N2CCOCC2)c1` [Example 26], the IC50 in experiment [1] was 1000 to 10000 nM; in experiment [2] it was less than 100 nM; in experiment [3], less than 100 nM.

As to `Cc1cc(F)c(NC(=O)Nc2ccc(C(F)(F)F)nc2)cc1-c1cc(OCCN(C)C)nc(N2CCOCC2)c1` [Example 27], the IC50 lay in the range of 500 to 1000 nM in experiment [1], 100 to 500 nM in experiment [2] and 1000 to 10000 nM in experiment [3].

Take `Cc1ccc(NC(=O)Nc2ccc(C(F)(F)F)nc2)cc1-c1cc(-c2cnn(C)c2)nc(N2CCOCC2)c1` [Example 29]: the IC50 in experiment [1], in experiment [2] and in experiment [3] was less than 100 nM throughout.

Take `Cc1ccc(NC(=O)Nc2ccc(C(F)(F)F)nc2)cc1-c1cc(OCCN(C)C)nc(N2CCOCC2)c1` [Example 30]: the values for the IC50 in experiment [1], in experiment [2] and in experiment [3] were 100 to 500 nM, less than 100 nM and less than 100 nM, respectively.

For `Cc1ccc(NC(=O)Nc2ccc(C(F)(F)F)nc2)cc1-c1cc(N2CCOCC2)nc(N2CCN(C)CC2)c1` [Example 31], the IC50 in experiment [1] is 500 to 1000 nM; in experiment [2], 100 to 500 nM; in experiment [3] it was 100 to 500 nM.

Turning to `Cc1ccc(NC(=O)Nc2ccc(C(F)(F)F)nc2)cc1-c1cc(N2CCOCC2)nc(N2CCOCC2)c1` [Example 32], the IC50 in experiment [1], in experiment [2] and in experiment [3] was less than 100 nM each time.

With `Cc1ccc(NC(=O)Nc2ccc(C(F)(F)F)nc2)cc1-c1cc(OCC2COC2)nc(N2CCOCC2)c1` [Example 33], the figures for the IC50 in experiment [1], in experiment [2] and in experiment [3] were 100 to 500 nM, less than 100 nM and less than 100 nM, respectively.

In the case of `Cc1ccc(NC(=O)Nc2ccc(C(F)(F)F)nc2)cc1-c1cc(F)nc(N2CCOCC2)c1` [Example 35], the IC50 in experiment [1] and in experiment [2] was 1000 to 10000 nM in each case.

For the compound `Cc1ccc(NC(=O)Nc2ccc(C(F)F)nc2)cc1-c1cc(OCCO)nc(N2CCOCC2)c1` [Example 38], in experiment [3], the IC50 is less than 100 nM.

On to `Cc1ccc(NC(=O)Nc2ccc(C(F)(F)F)nc2)cc1-c1cc(OCCO)nc(-c2cn[nH]c2)c1` [Example 42], for which the IC50 in experiment [1], in experiment [2] and in experiment [3] was less than 100 nM in each case.
